How the values were obtained:
[1] = tested on: HER2 overexpressing cells (SK-BR-3, BT-474, N87); assay: In vitro drug combinations with PB4188 (checkerboard titrations, isobolograms); format: cell-based; conditions: HRG in matrigel or HRG stress concentrations
Experimental: Moreover, combination with chemotherapeutic drugs and cyclin inhibitors were tested. Combinations were tested on HER2 overexpressing cells growing in the presence of HRG in matrigel (SK-BR-3 and BT-474) or in the presence of HRG stress concentrations (N87 and SK-BR-3 as described in proliferation assays). The inhibitory effect of drug combinations was tested by imaging or by measuring proliferation using Alamar Blue as described herein before. […] The extent of growth inhibition obtained with each combination was calculated. […] The inhibition values of the combination experiments were used by CHALICE™ Analyzer software to generate the isobolograms.

[2] = tested on: intracranial ST1360B PDX tumors
Description: Mice carrying ST1360B tumors were supplemented with estrogen following tumor implantation. The tumor was washed with PBS and trimmed for residual connective tissues at the surface. The tumor was cut into small pieces and digested with Accutase and Collagenase IV to yield a suspension of single cells. The digestion was stopped by addition of media containing fetal bovine serum and the cell suspension was filtered through a 100 µm filter, washed in PBS and resuspended in PBS. The viability of the tumor cells was checked by trypan blue staining and the final concentration was 18 million viable cells/mL. The viability of total cells was greater than 80%. There was no differentiation between stromal or tumor cells and the solutions do also contain some cell debris. […] The cells were kept on ice until inoculation.
Mice were anaesthetized by hypnorm/midazolam (1 ml/100 g body weight) and placed in a stereotactic frame for fixation of the head. A longitudinal incision was made in the scalp exposing the calvarium. A hole was drilled in the skull 1.5 mm right of the sutura saggitalis and 0.5 mm posterior to the bregma using a microdrill. Ten µl of the cell suspension (180.000 cells) was injected at a depth of 2-2.5 mm at a rate of 60 nl/sec using a 100 µl syringe with a 25-gauge needle placed in a micro infusion pump. The needle was left for 3 minutes before being withdrawn. Bupivacaine (0.2 mg/100 g bodyweight) and Lidocaine (1 mg/100 g body weight) were administrated in the incision site for local anesthetic and the skin was closed with a suture. The mice were ear punched for identification and returned to their cages where they were monitored until fully recovered from the anesthesia. The mice were monitored at least twice per week (weight and clinical signs) after tumor inoculation and more often if clinical signs or weight loss was present.
Tumor development was monitored bi-weekly by T2-weighted MR imaging (axial and coronal planes). The first imaging session was 19 days after tumor inoculation. The animals were anesthetized during the MR imaging sessions (sevoflurane, 2-4% in ambient air supplemented with 100% O2 at approximately 4:1 ratio). Enrolment into study was based on two pathological MR scans showing tumor growth and a tumor volume of about 10-20 mm^3. Mice that meet the enrolment criteria were randomized into one of four groups. The first 32 mice that meet the inclusion criteria were enrolled into the study. Mice were randomized so all groups presented with the same mean tumor volume at treatment initiation.
Drugs were diluted in sterile saline before each dosing. Mice were placed under a heating lamp for approximately 5-10 minutes before injection of the test compound to make the procedure as quick and easy as possible. The mouse was placed on a tail restrain box and the test compound was dosed in the lateral tail vein as a single intravenous (i.v.) bolus dose. The dosing volume was 5.0mL/kg.
Tumor growth were monitored bi-weekly by T2-weighted MR imaging (axial and coronal planes) for the first two weeks after therapy initiation and weekly until 6 weeks after therapy. The animals were anesthetized during the MR imaging sessions (sevoflurane, 2-4% in ambient air supplemented with 100% O2 at approximately 4:1 ratio).
The brain with tumor was resected and preserved in 4% formaldehyde for 24-48 hours and transferred to 70% ethanol. The fixative: tissue ratio was at least 20:1.
Tumor volumes were measured on the images by drawing region of interests (ROIs) on the individual slices and calculating the volume of the ROIs.

Molecule	Drug combination with PB4188 (isobologram analysis) [1]	other results
Cc1nc(NC(=O)N2CCC[C@H]2C(N)=O)sc1-c1ccnc(C(C)(C)C(F)(F)F)c1 [BYL719]	synergistic	–
NC1(c2ccc(-c3nc4ccn5c(=O)[nH]nc5c4cc3-c3ccccc3)cc2)CCC1 [MK-2206]	synergistic	–
CO[C@H]1C[C@@H]2CC[C@@H](C)[C@@](O)(O2)C(=O)C(=O)N2CCCC[C@H]2C(=O)O[C@H]([C@H](C)C[C@@H]2CC[C@@H](OCCO)[C@H](OC)C2)CC(=O)[C@H](C)/C=C(\C)[C@@H](O)[C@@H](OC)C(=O)[C@H](C)C[C@H](C)/C=C/C=C/C=C/1C [everolimus]	synergistic	–
CS(=O)(=O)CCNCc1ccc(-c2ccc3ncnc(Nc4ccc(OCc5cccc(F)c5)c(Cl)c4)c3c2)o1 [lapatinib]	synergistic	–
CCOc1cc2ncc(C#N)c(Nc3ccc(OCc4ccccn4)c(Cl)c3)c2cc1NC(=O)/C=C/CN(C)C [neratinib]	synergistic	–
CC(=O)O[C@H]1C(=O)[C@@]2(C)[C@H]([C@H](OC(=O)c3ccccc3)[C@]3(O)C[C@H](OC(=O)[C@H](O)[C@@H](NC(=O)c4ccccc4)c4ccccc4)C(C)=C1C3(C)C)[C@]1(OC(C)=O)CO[C@@H]1C[C@@H]2O [paclitaxel]	synergistic	–
O=C(CCCCCCC(=O)Nc1ccccc1)NO [vorinostat]	synergistic	–
T-DM1	–	Tumor growth by T2-weighted MRI ([2]; compared to vehicle treated mice): inhibited; mean tumor volume 10 days post therapy ([2]; compared to vehicle treated mice, p<0.05, Tukey): significantly smaller compared to vehicle treated mice; Brain edema score day 3 ([2]; individual mouse, scale 0-4 (0 no, 4 massive brain edema), day 3 post initiation of therapy): 0; median survival ([2]; post therapy initiation, T-DM1 10 mg/kg 4x qwk i.v., MCLA-128 25 mg/kg 4x twice wk i.v., vehicle 13 days): 19.5 days

Reference: patent publication EP4810518A2, “ANTIBODY THAT BINDS ERBB-2 AND ERBB-3” (Merus B.V., priority 2017, dated 2018)
